Reference: patent US8952024B2, “Herbicidal pyrimidone derivatives” (E I du Pont de Nemours and Company, priority 2009, dated 2015)

Columns and labels:
Type in all cases: in vivo
[1] = tested on: wheat (Triticum aestivum); experiment: Test A pre-/postemergence plant response
Outline: (§1)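 Visually rated 0–100 injury (100 = complete control) versus untreated plants, ~10 days in greenhouse. Application pre- (soil spray, loam/sand) and postemergence (2–10 cm, 1–2 leaf stage), same timepoint.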

[2] = tested on: barnyardgrass (Echinochloa crus-galli); experiment: Test A pre-/postemergence plant response
Outline: as §1

[3] = tested on: morningglory (Ipomoea spp.); experiment: Test A pre-/postemergence plant response
Outline: as §1

[4] = tested on: giant foxtail (Setaria faberii); experiment: Test A pre-/postemergence plant response
Outline: as §1

[5] = tested on: corn (Zea mays); experiment: Test A pre-/postemergence plant response
Outline: as §1

[6] = tested on: large crabgrass (Digitaria sanguinalis); experiment: Test A pre-/postemergence plant response
Outline: as §1

[7] = tested on: velvetleaf (Abutilon theophrasti); experiment: Test A pre-/postemergence plant response
Outline: as §1

[8] = tested on: pigweed (Amaranthus retroflexus); experiment: Test A pre-/postemergence plant response
Outline: as §1

[9] = tested on: winter barley (Hordeum vulgare); experiment: Test B postemergence plant response
Outline: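 Plants grown in peat/vermiculite medium were sprayed postemergence at 2–18 cm height (1- to 4-leaf stage). After 13–15 days in the greenhouse, response was rated visually against untreated controls on a 0–100 scale (0 no effect, 100 complete control).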

[10] = tested on: barnyardgrass (Echinochloa crus-galli); experiment: Test B flooded paddy test; conditions: for Plant response rating, Flood, Barnyardgrass: 250 g ai/ha, flooded paddy test, visual rating on 0 to 100 scale (0 no effect, 100 complete control) after 13 to 15 days; for Plant response rating, Barnyardgrass: Flood (flooded paddy test), 13 to 15 days
Outline: (§2)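 Seedlings reaching 2 leaves are flooded 3 cm deep; test material is delivered to that water, which stays at the same depth. Plants remain in a greenhouse 13–15 days and are then scored by eye versus controls from 0 to 100.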

[11] = tested on: umbrella sedge (Cyperus difformis); experiment: Test B flooded paddy test; conditions: for Plant response rating, Flood, Sedge, Umbrella: 250 g ai/ha, flooded paddy test, visual rating on 0 to 100 scale (0 no effect, 100 complete control) after 13 to 15 days; for Plant response rating, Sedge, Umbrella: Flood (flooded paddy test), 13 to 15 days
Outline: as §2

[12] = tested on: ducksalad (Heteranthera limosa); experiment: Test B flooded paddy test; conditions: for Plant response rating, Flood, Ducksalad: 250 g ai/ha, flooded paddy test, visual rating on 0 to 100 scale (0 no effect, 100 complete control) after 13 to 15 days; for Plant response rating, Ducksalad: Flood (flooded paddy test), 13 to 15 days
Outline: as §2

[13] = tested on: rice (Oryza sativa); experiment: Test B flooded paddy test; conditions: for Plant response rating, Flood, Rice: 250 g ai/ha, flooded paddy test, visual rating on 0 to 100 scale (0 no effect, 100 complete control) after 13 to 15 days; for Plant response rating, Rice: Flood (flooded paddy test), 13 to 15 days
Outline: as §2

[14] = Postemergence, 125 g ai/ha, visual injury, 0 to 100 scale (0 no effect, 100 complete control), approx. ten days
[15] = Postemergence, 500 g ai/ha, 0 to 100 scale, 0 = no effect, 100 = complete control, approx. ten days
[16] = Preemergence, 125 g ai/ha, 0 to 100 scale, 0 = no effect, 100 = complete control
[17] = Preemergence, 500 g ai/ha, visual injury, 0 to 100 scale (0 no effect, 100 complete control), approx. ten days
[18] = 31 g ai/ha, postemergence, scale 0 to 100, 0 is no effect, 100 is complete control
[19] = Postemergence, 62 g ai/ha, scale 0 (no effect) to 100 (complete control), 13 to 15 days
[20] = Postemergence, 125 g ai/ha, visual rating after 13 to 15 days, scale 0 (no effect) to 100 (complete control)
[21] = Postemergence, 250 g ai/ha, scale 0 to 100 (0 no effect, 100 complete control)
[22] = 31 g ai/ha, scale of 0 to 100 where 0 is no effect and 100 is complete control
[23] = 62 g ai/ha, scale of 0 to 100 where 0 is no effect and 100 is complete control
[24] = 125 g ai/ha, scale 0 to 100, 0 is no effect, 100 is complete control

O=C1CCCC(O)=C1C(=O)c1cnc(-c2ccccc2)n(CC2CCCO2)c1=O (stereo not drawn) [Compound 59]
Wheat plant response rating [1, 14]: 0 | Plant response rating, Wheat [1, 15]: 10 | Plant response rating, Wheat [1, 16]: 0 | Plant response rating, Wheat [1, 17]: 0 | Barnyardgrass plant response rating [2, 14]: 90 | Plant response rating, Barnyardgrass [2, 15]: 90 | Plant response rating, Barnyardgrass [2, 16]: 40 | Plant response rating, Barnyardgrass [2, 17]: 90 | Morningglory plant response rating [3, 14]: 100 | Plant response rating, Morningglory [3, 15]: 100 | Plant response rating, Morningglory [3, 17]: 90 | Foxtail, Giant plant response rating [4, 14]: 80 | Plant response rating, Foxtail, Giant [4, 15]: 90 | Plant response rating, Foxtail, Giant [4, 16]: 50 | Plant response rating, Foxtail, Giant [4, 17]: 80 | Corn plant response rating [5, 14]: 10 | Plant response rating, Corn [5, 15]: 30 | Plant response rating, Corn [5, 16]: 0 | Plant response rating, Corn [5, 17]: 0 | Crabgrass, Large plant response rating [6, 14]: 90 | Plant response rating, Crabgrass, Large [6, 15]: 100 | Plant response rating, Crabgrass, Large [6, 16]: 90 | Plant response rating, Crabgrass, Large [6, 17]: 100 | Velvetleaf plant response rating [7, 14]: 100 | Plant response rating, Velvetleaf [7, 15]: 100 | Plant response rating, Velvetleaf [7, 16]: 100 | Plant response rating, Velvetleaf [7, 17]: 100 | Pigweed plant response rating [8, 14]: 100 | Plant response rating, Pigweed [8, 15]: 100 | Plant response rating, Pigweed [8, 16]: 90 | Plant response rating, Pigweed [8, 17]: 100 | Plant response rating, Barley [9, 18]: 0 | Plant response rating, Barley [9, 19]: 0 | Plant response rating, Barley [9, 20]: 10 | Plant response rating, Barley [9, 21]: 10 | Plant response rating, Flood, Barnyardgrass [10]: 45 | Plant response rating, Barnyardgrass [10, 22]: 0 | Plant response rating, Barnyardgrass [10, 23]: 0 | Plant response rating, Barnyardgrass [10, 24]: 20 | Plant response rating, Flood, Sedge, Umbrella [11]: 75 | Plant response rating, Sedge, Umbrella [11, 22]: 30 | Plant response rating, Sedge, Umbrella [11, 23]: 40 | Plant response rating, Sedge, Umbrella [11, 24]: 50 | Plant response rating, Flood, Ducksalad [12]: 40 | Plant response rating, Ducksalad [12, 22]: 0 | Plant response rating, Ducksalad [12, 23]: 0 | Plant response rating, Ducksalad [12, 24]: 0 | Plant response rating, Flood, Rice [13]: 15 | Plant response rating, Rice [13, 22]: 0 | Plant response rating, Rice [13, 23]: 15 | Plant response rating, Rice [13, 24]: 15

CCCCc1ncc(C(=O)C2=C(O)CCCC2=O)c(=O)n1-c1cccc(C)c1 [Compound 63]
Wheat plant response rating [1, 14]: 0 | Plant response rating, Wheat [1, 15]: 0 | Plant response rating, Wheat [1, 17]: 0 | Barnyardgrass plant response rating [2, 14]: 70 | Plant response rating, Barnyardgrass [2, 15]: 90 | Plant response rating, Barnyardgrass [2, 16]: 10 | Plant response rating, Barnyardgrass [2, 17]: 90 | Morningglory plant response rating [3, 14]: 100 | Plant response rating, Morningglory [3, 15]: 100 | Plant response rating, Morningglory [3, 16]: 10 | Plant response rating, Morningglory [3, 17]: 70 | Foxtail, Giant plant response rating [4, 14]: 60 | Plant response rating, Foxtail, Giant [4, 15]: 80 | Plant response rating, Foxtail, Giant [4, 16]: 50 | Plant response rating, Foxtail, Giant [4, 17]: 80 | Corn plant response rating [5, 14]: 10 | Plant response rating, Corn [5, 15]: 50 | Plant response rating, Corn [5, 16]: 0 | Plant response rating, Corn [5, 17]: 0 | Crabgrass, Large plant response rating [6, 14]: 80 | Plant response rating, Crabgrass, Large [6, 15]: 90 | Plant response rating, Crabgrass, Large [6, 16]: 90 | Plant response rating, Crabgrass, Large [6, 17]: 100 | Velvetleaf plant response rating [7, 14]: 100 | Plant response rating, Velvetleaf [7, 15]: 100 | Plant response rating, Velvetleaf [7, 16]: 80 | Plant response rating, Velvetleaf [7, 17]: 90 | Pigweed plant response rating [8, 14]: 90 | Plant response rating, Pigweed [8, 15]: 100 | Plant response rating, Pigweed [8, 16]: 100 | Plant response rating, Pigweed [8, 17]: 100 | Plant response rating, Barley [9, 18]: 0 | Plant response rating, Barley [9, 19]: 0 | Plant response rating, Barley [9, 20]: 0 | Plant response rating, Barley [9, 21]: 0 | Plant response rating, Flood, Barnyardgrass [10]: 10 | Plant response rating, Barnyardgrass [10, 22]: 0 | Plant response rating, Barnyardgrass [10, 23]: 0 | Plant response rating, Barnyardgrass [10, 24]: 0 | Plant response rating, Flood, Sedge, Umbrella [11]: 0 | Plant response rating, Sedge, Umbrella [11, 22]: 0 | Plant response rating, Sedge, Umbrella [11, 23]: 0 | Plant response rating, Sedge, Umbrella [11, 24]: 0 | Plant response rating, Flood, Ducksalad [12]: 40 | Plant response rating, Ducksalad [12, 22]: 0 | Plant response rating, Ducksalad [12, 23]: 20 | Plant response rating, Ducksalad [12, 24]: 40 | Plant response rating, Flood, Rice [13]: 10 | Plant response rating, Rice [13, 22]: 0 | Plant response rating, Rice [13, 23]: 0 | Plant response rating, Rice [13, 24]: 0
